# Assay results published in US20160274087A1, “SCREENING ASSAY FOR AGENTS THAT INFLUENCE BETA CELL NUMBER AND/OR PHENOTYPE” (VRIJE UNIVERSITEIT BRUSSEL, priority 2013, published 2016).
# Experiments:
# rat beta cells [1] = experiment: Beta cell viability / cell death (propidium iodide assay); format: cell-based; settings: LOPAC screen at 1 μM; adult rat beta cells; day 6; control medium 97
# Excerpt: Numbers of living beta cells were obtained by subtracting the PI-positive cell numbers from the Ho-positive cell numbers, and correcting for the percent insulin-negative cells, as determined following insulin-immunofluorescence staining. They were expressed as percent of the numbers on day 1. […] To detect beta cells that underwent two successive cycles, cells were sequentially exposed to two different thymidine-analogs, first EdU from day 3 to 6, and then BrdU (100 μmol/l) from day 7 to 10, with a 24-hour label-free period in between. EdU-positive (EdU^+) nuclei were detected with the Click-iT Assay kit (Invitrogen), while BrdU-positive (BrdU^+) nuclei were identified with anti-BrdU antibody.
# (§1) Absolute number of cells was determined by whole-well imaging using the BD-PathwayBioimager855 (BD-Biosciences). IPLab and AttoVision software packages (BD-Biosciences) were used for image background subtraction, segmentation and quantification.
# Freshly purified beta cells were cultured in control medium for 24 h prior to the addition of the LOPAC test compounds (day 1). The culture medium was refreshed on day 3 and the cells were then cultured further with 5-ethynyl-2′-deoxyuridine (EdU; 10 μM) up to day 6. […] Thus, a compound is considered a hit only if it increases the percent EdU incorporation to above three standard deviation of the plate-averaged percent EdU incorporation.
# [2] = target: T1, glucocorticoid receptor (GR) (Homo sapiens, UniProt P04150); settings: cited from earlier work
# T1 sequence (P04150 1-777): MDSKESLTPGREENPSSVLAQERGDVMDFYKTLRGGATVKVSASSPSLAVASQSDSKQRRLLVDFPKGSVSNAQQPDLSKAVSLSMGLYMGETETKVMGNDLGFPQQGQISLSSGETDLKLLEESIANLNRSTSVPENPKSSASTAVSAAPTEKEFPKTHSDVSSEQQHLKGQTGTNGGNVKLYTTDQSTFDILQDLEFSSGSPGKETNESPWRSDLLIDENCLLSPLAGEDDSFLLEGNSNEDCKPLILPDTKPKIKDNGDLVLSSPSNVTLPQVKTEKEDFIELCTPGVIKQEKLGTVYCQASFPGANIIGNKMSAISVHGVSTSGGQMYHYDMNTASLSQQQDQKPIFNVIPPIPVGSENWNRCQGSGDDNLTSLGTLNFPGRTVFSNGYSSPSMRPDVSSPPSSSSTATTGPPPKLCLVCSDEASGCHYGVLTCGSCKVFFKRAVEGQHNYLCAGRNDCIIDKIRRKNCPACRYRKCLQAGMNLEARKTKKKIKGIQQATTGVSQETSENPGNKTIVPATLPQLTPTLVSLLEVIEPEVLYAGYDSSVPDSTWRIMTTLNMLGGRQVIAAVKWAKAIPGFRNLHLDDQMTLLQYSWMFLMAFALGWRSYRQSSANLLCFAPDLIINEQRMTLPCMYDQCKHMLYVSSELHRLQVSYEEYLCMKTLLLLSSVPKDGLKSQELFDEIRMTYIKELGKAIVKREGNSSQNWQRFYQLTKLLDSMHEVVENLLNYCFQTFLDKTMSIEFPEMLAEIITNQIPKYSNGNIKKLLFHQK
# rat beta cells [3] = experiment: Cellular insulin content, insulin release and glucose-stimulated insulin secretion of cultured beta cells; format: cell-based; settings: for Insulin Content Day 15: HC
# Experimental: (§2) Beta cells were FACS-purified from islet-cell enriched suspensions (Pipeleers et al., 1985) prepared from neonatal (2-3 days-old) and adolescent or adult (8 or 40-week-old, male) Wistar rats (Janvier Bioservices, France); their purity was, respectively 70-75% and over 90%. Sorted cells were counted in a hemocytometer, seeded (day 0) and cultured for up to 15 days in serum-free Ham's-F10 medium at 5, 10 or 20 mmol/l glucose, supplemented with 2 mmol/l L-glutamine, 50 μM 3-isobutyl-1-methylxanthine, 0.5% Albumax-I, penicillin (100 U/ml) and streptomycin (0.1 mg/ml). The 10 mmol/l glucose condition is known to maintain beta cell survival over 9-days (Ling et al., 1994; Ling and Pipeleers, 1994). Medium and cells were retrieved after selected culture periods and assayed for insulin content; data were expressed as a function of the number of living beta cells that was determined in parallel wells.
# rat beta cells [4] = experiment: Number of living beta cells in culture (Hoechst 33342/propidium iodide whole-well imaging counts; expansion assay); format: cell-based
# Experimental: as §2
# On day 1, 9 and 15 of culture, total numbers of living beta cells per well were determined by semi-automatic cell count, after Hoechst 33342 (Ho) and propidium iodide (PI) staining. Numbers of living beta cells were obtained by subtracting the PI-positive cell numbers from the Ho-positive cell numbers, and correcting for the percent insulin-negative cells, as determined following insulin-immunofluorescence staining. They were expressed as percent of the numbers on day 1. Each condition was also evaluated for increases in the percentage of proliferating beta cells (incorporating the thymidine-analogue 5-ethynyl-2′-deoxyuridine, EdU; 100 μmol/l). To detect beta cells that underwent two successive cycles, cells were sequentially exposed to two different thymidine-analogs, first EdU from day 3 to 6, and then BrdU (100 μmol/l) from day 7 to 10, with a 24-hour label-free period in between. EdU-positive (EdU^+) nuclei were detected with the Click-iT Assay kit (Invitrogen), while BrdU-positive (BrdU^+) nuclei were identified with anti-BrdU antibody.
# as §1
# Experimental procedures for isolation of beta cells from neonatal (2-3 days old) and adult (8 or 40 week old, male) Wistar rats (Janvier Bioservices, France) and analysis of their number, viability and proliferation activity in culture have been described before (Assefa et al., 2014). Sorted beta cells were seeded in 804G matrix-coated plates (designated as day 0) and the numbers and viability of seeded cells at the start of all experiments were determined on day 1 (24 h after seeding). The cells were cultured in control medium, which is a serum-free Ham's F10 medium supplemented with 2 mM L-glutamine, 50 μM 3-isobutyl-1-methylxanthine, 0.5% Albumax I, penicillin (100 U/ml), streptomycin (0.1 mg/ml) and, unless indicated otherwise, 10 mM glucose.
# Sorted beta cells were seeded in 384-well or 6-well plates coated with 804G matrix, and kept in culture for up to 15 days at 37° C. 5% CO2 using Ham F10 supplemented with 1 mM L-glutamine, 0.1 mg/ml streptomycin, 0.075 mg/ml penicillin, 50 μM of isobutyl-1-methylxanthine (IBMX) at 10 mM D-glucose with and without synthetic GCs (6 methyl-prednisolone (6MP), dexamethasone (DEX), GR-modulators (compound A (CPA), mifepristone (MIF), and NFκB inhibitors (JSH-23 en Bay11-7085). Total cell number and beta cell viability was evaluated after incubation with Hoechst 33342 and propidium iodide. All chemicals were from Sigma Life Sciences or Merck. Quantification of cell numbers and analysis of beta-cell viability was done using the Pathway Bioimager (BD Biosciences) and using IPlab and Attovision software for background subtraction as described prior (Assefa et al., 2014).
compound,measurement,setting,value
"C[C@]12CCC(=O)C=C1CC[C@@H]1[C@@H]2[C@@H](O)C[C@@]2(C)[C@H]1CC[C@]2(O)C(=O)CO [Hydrocortisone, hydrocortisone]",Percent viable cells,rat beta cells [1],97%
same,Relative Potencies GR,[2],1
same,Insulin Content Day 15,"rat beta cells [3]; 9 days, 6 days, control",33.1 ± 2.9 ng/10^3 cells
same,Insulin Content Day 15,"rat beta cells [3]; 15 days, control 35.3 ± 3.6",9.3 ± 0.7 ng/10^3 cells
same,Insulin Content Day 9,"rat beta cells [3]; continuous HC, control 23.7 ± 0.9",14.0 ± 1.4 ng/10^3 cells
same,loss of insulin content on day 9,rat beta cells [3]; continuous incubation with HC,56%
same,loss of insulin content on day 15,rat beta cells [3]; continuous incubation with HC,more than 70%
same,Number of Living Cells on Day 15 (% of Day 1),"rat beta cells [4]; 9 days, HC, 6 days, control",168.1 ± 6.8 % of Day 1
same,Number of Living Cells on Day 15 (% of Day 1),"rat beta cells [4]; 15 days, HC (Table 7), control 102.5 ± 6.1",173.9 ± 7.1 % of Day 1
same,Number of Living Cells on Day 15 (% of Day 1),"rat beta cells [4]; HC alone, 15 days (Table 6)",156 ± 4 % of Day 1
same,Number of Living Cells on Day 15 (% of Day 1),"rat beta cells [4]; HC, glucose 7.5 high-responsive cells, control 99.0 ± 1.5",182.0 ± 4.9 % of Day 1
same,Number of Living Cells on Day 15 (% of Day 1),"rat beta cells [4]; HC, glucose 7.5 low-responsive cells, control 94.0 ± 9.2",117.3 ± 5.2 % of Day 1
same,Number of Living Cells on Day 15 (% of Day 1),"rat beta cells [4]; HC, mixed beta cell population, control 110.7 ± 5.0",169.0 ± 9.3 % of Day 1
same,increase in absolute number of living beta cells in culture,rat beta cells [4]; two-weeks culture,near population doubling
